Broadly, the inhibition is the relative decrease from the control value, in per cent.

Common to all, as to assay: Large panel kinase profiling
Type in all cases: biochemical
Common to all, as to conditions: 1 μM test article, 1 mM ATP

Assay [1] deals with T1, NEK7 (Homo sapiens, UniProt Q8TDX7).
T1 construct: AssayQuant Technologies, Inc. (assay service)
Summed up: (§1)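 With ATP fixed at 1 mM, each kinase was exposed to 1 μM compound in a PhosphoSens CSox-Sensor reaction. Sealed plates were incubated at 30° C. and read in kinetic mode.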

Assay [2] addresses T2, AURKC/AURC (Homo sapiens, UniProt Q9UQB9).
T2 sequence (Q9UQB9 1-309): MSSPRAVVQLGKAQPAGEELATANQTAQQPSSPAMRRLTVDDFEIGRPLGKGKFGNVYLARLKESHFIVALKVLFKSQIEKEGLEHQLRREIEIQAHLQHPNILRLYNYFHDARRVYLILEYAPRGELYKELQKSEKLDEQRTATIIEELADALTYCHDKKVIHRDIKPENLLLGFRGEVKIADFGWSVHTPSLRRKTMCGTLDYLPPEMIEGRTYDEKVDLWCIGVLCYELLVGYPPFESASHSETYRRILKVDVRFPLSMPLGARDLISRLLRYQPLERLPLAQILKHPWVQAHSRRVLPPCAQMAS
Put shortly: as §1

Assay [3] concerns the target T3, FLT1 (Homo sapiens, UniProt P17948).
T3 construct: AssayQuant Technologies, Inc. (service provider)
Put shortly:
as §1

Assay [4] concerns the target T4, PDK1 (Homo sapiens, UniProt O15530).
T4 sequence (O15530 1-556): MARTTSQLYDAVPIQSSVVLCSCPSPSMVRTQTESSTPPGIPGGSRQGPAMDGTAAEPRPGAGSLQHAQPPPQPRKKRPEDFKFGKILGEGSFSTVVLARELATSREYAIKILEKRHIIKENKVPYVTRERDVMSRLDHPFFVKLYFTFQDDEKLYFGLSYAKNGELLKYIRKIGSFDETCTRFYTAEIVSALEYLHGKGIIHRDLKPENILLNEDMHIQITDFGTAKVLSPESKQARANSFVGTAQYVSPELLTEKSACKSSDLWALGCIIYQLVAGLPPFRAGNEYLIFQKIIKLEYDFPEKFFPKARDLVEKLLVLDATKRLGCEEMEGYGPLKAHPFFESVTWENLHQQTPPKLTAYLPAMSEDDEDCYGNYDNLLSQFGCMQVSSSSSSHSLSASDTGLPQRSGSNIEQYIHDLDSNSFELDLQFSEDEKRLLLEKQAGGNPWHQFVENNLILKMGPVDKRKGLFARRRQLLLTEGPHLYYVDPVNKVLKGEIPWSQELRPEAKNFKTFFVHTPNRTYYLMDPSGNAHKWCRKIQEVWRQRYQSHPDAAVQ
Put shortly: as §1

Assay [5] concerns the target T5, TAOK3 (Homo sapiens, UniProt Q9H2K8).
T5 construct: AssayQuant Technologies, Inc. (contract assay)
T5 sequence (Q9H2K8 1-898): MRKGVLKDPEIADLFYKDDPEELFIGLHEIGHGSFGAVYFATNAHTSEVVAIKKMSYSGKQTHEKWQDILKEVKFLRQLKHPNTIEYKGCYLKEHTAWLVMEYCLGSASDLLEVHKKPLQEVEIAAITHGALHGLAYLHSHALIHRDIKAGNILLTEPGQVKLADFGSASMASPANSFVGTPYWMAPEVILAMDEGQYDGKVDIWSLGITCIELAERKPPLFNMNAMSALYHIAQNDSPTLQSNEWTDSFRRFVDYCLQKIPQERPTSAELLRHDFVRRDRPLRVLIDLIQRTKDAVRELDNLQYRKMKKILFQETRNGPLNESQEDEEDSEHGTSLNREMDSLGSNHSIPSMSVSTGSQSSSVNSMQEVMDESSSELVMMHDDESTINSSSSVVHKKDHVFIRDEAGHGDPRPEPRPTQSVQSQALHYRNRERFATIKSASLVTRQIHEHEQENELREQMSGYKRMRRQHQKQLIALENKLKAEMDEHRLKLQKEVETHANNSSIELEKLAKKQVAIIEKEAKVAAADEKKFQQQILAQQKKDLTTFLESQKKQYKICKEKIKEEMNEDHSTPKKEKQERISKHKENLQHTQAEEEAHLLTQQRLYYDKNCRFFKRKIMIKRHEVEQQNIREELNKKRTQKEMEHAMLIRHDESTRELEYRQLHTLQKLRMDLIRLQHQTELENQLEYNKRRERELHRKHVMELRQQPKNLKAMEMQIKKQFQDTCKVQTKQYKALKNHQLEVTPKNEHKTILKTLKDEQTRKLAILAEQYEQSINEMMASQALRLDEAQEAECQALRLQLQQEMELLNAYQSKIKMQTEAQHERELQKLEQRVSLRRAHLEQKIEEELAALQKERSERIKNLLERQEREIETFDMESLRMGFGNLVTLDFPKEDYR
Summed up: as §1

For assay [6], the target named is T6, MAP3K3 (Homo sapiens, UniProt Q99759).
T6 construct: AssayQuant Technologies, Inc. (service provider)
T6 sequence (Q99759 1-626): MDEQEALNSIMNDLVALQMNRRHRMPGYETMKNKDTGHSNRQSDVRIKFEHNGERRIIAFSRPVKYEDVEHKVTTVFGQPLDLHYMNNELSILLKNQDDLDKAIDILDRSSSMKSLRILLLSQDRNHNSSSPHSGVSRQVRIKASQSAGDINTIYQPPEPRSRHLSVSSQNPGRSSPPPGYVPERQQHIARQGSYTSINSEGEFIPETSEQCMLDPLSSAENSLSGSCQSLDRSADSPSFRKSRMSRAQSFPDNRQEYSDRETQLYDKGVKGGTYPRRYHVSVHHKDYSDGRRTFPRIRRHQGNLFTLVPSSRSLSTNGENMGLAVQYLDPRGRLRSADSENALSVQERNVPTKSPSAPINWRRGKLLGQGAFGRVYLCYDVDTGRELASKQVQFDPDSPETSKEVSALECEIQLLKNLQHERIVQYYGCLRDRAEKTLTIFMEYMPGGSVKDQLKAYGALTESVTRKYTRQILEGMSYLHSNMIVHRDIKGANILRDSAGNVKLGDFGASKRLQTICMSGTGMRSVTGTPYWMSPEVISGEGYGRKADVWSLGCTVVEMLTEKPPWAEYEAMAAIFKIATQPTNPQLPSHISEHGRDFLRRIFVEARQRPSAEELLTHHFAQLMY
Summed up: as §1

T3 sequence (P17948 27-1338, species assumed): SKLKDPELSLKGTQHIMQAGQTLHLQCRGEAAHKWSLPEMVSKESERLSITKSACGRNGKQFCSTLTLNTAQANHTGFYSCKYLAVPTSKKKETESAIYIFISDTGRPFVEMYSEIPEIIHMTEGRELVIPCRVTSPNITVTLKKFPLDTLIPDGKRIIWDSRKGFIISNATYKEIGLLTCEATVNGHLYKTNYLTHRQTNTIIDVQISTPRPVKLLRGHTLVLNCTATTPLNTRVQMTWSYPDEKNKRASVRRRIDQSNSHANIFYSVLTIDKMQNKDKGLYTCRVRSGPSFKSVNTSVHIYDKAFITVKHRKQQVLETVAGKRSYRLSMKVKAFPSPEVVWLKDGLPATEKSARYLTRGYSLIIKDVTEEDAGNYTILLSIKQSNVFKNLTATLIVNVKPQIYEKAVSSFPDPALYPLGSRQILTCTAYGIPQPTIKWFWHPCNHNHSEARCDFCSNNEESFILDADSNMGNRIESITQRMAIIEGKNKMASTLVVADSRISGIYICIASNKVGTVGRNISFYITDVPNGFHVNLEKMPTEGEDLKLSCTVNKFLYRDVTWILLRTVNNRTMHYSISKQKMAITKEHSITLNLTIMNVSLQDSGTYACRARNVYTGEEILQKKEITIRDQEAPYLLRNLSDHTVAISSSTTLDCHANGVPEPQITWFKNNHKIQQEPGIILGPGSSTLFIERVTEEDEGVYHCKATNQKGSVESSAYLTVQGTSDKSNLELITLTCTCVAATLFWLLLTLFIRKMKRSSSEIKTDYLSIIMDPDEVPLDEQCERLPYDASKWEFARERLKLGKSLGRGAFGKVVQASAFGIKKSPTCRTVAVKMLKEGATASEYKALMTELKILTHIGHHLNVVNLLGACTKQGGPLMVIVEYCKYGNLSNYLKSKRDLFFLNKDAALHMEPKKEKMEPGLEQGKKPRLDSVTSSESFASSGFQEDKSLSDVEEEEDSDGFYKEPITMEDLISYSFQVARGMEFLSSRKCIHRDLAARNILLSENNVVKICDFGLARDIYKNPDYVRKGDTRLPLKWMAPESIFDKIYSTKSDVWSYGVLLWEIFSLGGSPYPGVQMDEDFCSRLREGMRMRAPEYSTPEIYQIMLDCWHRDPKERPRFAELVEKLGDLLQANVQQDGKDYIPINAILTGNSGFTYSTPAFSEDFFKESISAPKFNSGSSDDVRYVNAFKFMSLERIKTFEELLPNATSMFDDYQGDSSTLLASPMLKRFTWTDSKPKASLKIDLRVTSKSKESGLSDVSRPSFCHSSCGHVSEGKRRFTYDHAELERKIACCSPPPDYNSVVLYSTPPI
T1 sequence (Q8TDX7 whole entry, species assumed): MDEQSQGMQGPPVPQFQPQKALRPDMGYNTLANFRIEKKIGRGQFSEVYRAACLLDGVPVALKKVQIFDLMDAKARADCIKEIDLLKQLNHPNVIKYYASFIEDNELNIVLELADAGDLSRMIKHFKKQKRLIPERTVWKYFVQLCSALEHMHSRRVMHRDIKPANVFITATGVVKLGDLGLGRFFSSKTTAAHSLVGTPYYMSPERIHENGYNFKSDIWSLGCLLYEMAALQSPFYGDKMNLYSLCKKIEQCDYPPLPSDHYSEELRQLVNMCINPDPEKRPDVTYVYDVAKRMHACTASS

Consider `C=CC(=O)N1CCCC(c2c(F)cc(C(N)=O)c3[nH]c4c(c23)CCCCC4)C1` (single isomer, unassigned) [Compound 5-6], for which the inhibition at 1 µM in assay [1] is 14.6%; in assay [2], -8.9%; in assay [3], 12.1%; in assay [4], 22.8%; in assay [5], 14.1%; in assay [6] it was -7%.

Take `C=CC(=O)N1CCC[C@@H](c2c(F)cc(C(N)=O)c3[nH]c4c(c23)CC2(CC4)CC2)C1` [Compound 6-2, (S)-5-(1-acryloylpiperidin-3-yl)-6-fluoro-1,2,4,9-tetrahydrospiro[carbazole-3,1′-cyclopropane]-8-carboxamide]: the inhibition at 1 µM in assay [1] is 13.8%; in assay [2], -2%; in assay [3], 20.7%; in assay [4], -7.8%; in assay [5], 1.6%; in assay [6] it was -3.6%.

As to `C=CC(=O)N1CCC[C@@H](c2c(F)cc(C(N)=O)c3[nH]c4c(c23)CCC4)C1` [Compound 10-2, (S)-8-(1-acryloylpiperidin-3-yl)-7-fluoro-1,2,3,4-tetrahydrocyclo-penta[b]indole-5-carboxamide], the inhibition at 1 µM was -22.6% in assay [1]; 16.7% in assay [2]; 8.6% in assay [3]; -28.3% in assay [4]; -2.9% in assay [5]; 19.9% in assay [6].

The record behind these values is patent publication US20220009920A1 (GB005, Inc., priority 2020, published 2022).
